Publication PMC11117716 (Biomolecules, 2024)

Columns and labels:
[1] = Plasma pharmacokinetics after oral Posiphen in Sprague Dawley rats (LC-MS/MS); assay type: in vivo, rat
Procedure: In rats and dogs, blood samples were centrifuged, and the resultant plasma was separated, and 200 µL (rat) or 400 µL (dog) of plasma was transferred to uniquely labeled pre-chilled polypropylene tubes containing 5 µL (rat) or 10 µL (dog) Dichlorvos spiking solution (nominal concentration of 0.82 mg/mL in MeOH/Water, 20/80, v/v).
(§1) The detection limit was 0.025 ng/mL.

[2] = Plasma pharmacokinetics after oral Posiphen in humans (LC-MS/MS); assay type: in vivo, human; conditions: for Tmax: Posiphen PO 80 mg/day (1.1 mg/kg), n = 4
Procedure: This paper describes data from multiple studies.
Samples were frozen and then stored at −80 °C.
as §1

[3] = in vivo; conditions: CD-1, mouse; for T1/2 / Tmax / Tmax (time of Cmax) / Cmax: po; for Cmax: 65 mg/kg
Procedure: The animal PKs were taken from multiple GLP toxicology studies, biomarker studies, and efficacy studies. […] Sample size (n) represents the number of animals at each time point of sample collection. […] The dose volume was determined according to animals’ weight collected on the dosing day.
In mice, blood samples were collected via the saphenous vein or other suitable blood collection site into a microcentrifuge tube containing the anti-coagulant K2-EDTA on wet ice and processed for plasma. For samples collected within the first hour of dosing, ±1 min is acceptable, while for all other timepoints, samples were taken within 5% of the scheduled time and are not considered as protocol deviations. Plasma samples were centrifuged (3200× g for 10 min at 4 °C) within an hour of collection. CSF samples were collected with 3 μL volume per time point, frozen on dry ice, and stored at −60 °C for further analysis. For brain collection in mice, animals were euthanized using CO2 inhalation. Whole brain was collected, washed in cold saline, dried, and homogenized immediately […]. Homogenizing buffer MeOH/15 mM PBS (1:2, v:v) was used at a ratio of 1:9 (1 g of tissue with 9 mL of buffer; the dilution ratio is 10).
(§2) In humans, the bioanalytical method was performed in accordance with current FDA, Industry Guidelines, and OECD Principles. […] The sample analysis was conducted in accordance with current GCP and GLP principles, and the results were presented for pharmacokinetic profiling (Absorption Systems, Exton, PA, USA). Calibration ranges for each analyte ranged from 1000 ng/mL to 1 ng/mL (or ng/g for brain) in plasma, brain, and CSF matrices. The detection limit was 0.025 ng/mL. The following PK parameters were collected for the purpose of this manuscript: maximum concentration (Cmax), time to maximum drug concentration (Tmax), half-life (T1/2), and the Area Under the Curve (AUC).

[4] = clinical; conditions: human, in vivo
Procedure: This paper describes data from multiple studies. The healthy volunteers’ data come from the single ascending and multiple ascending dose study, whereas Alzheimer’s and Parkinson’s patients are represented by the MCI NCT01072812 study, ADCS NCT02925650 study, and AD/PD NCT04524351 study. The evaluations are based on a sample size of n = 4 for each time point.
In humans, plasma and lumbar CSF samples were collected via an indwelling catheter over 12 h (at 0, 1, 1.5, 2, 3, 4, 6, 8, and 12 h) initiated at the same time of day, 1 day prior to the start of dosing, to obtain time-dependent baseline control data, and then at the exact same times immediately after the last dose was administered. Samples were frozen and then stored at −80 °C.
as §2

[5] = LogD; assay type: physicochemical
[6] = human; side effects nausea and vomiting; cited from earlier work
[7] = both sexes, Sprague Dawley, rat, in vivo, 40 mg/kg
[8] = both sexes, Sprague Dawley, rat, in vivo, po, 40 mg/kg

CN1CC[C@]2(C)c3cc(OC(=O)Nc4ccccc4)ccc3N(C)C12.O=C(O)C(O)C(O)C(=O)O (stereo partly drawn) [Posiphen, (3aR)-1,3a, 8-trimethyl-1,2,3,3a, 8,8a-hexahydropyrrolo (2,3-b) indol-5-yl phenylcarbamate tartrate]
concentration at 0.25 h [1, 7]: 1090 ng/mL | concentration at 1 h [1, 7]: 771 ng/mL | concentration at 2 h [1, 7]: 381 ng/mL | concentration at 4 h [1, 7]: 243 ng/mL | concentration at 8 h [1, 7]: 234 ng/mL | Cmax [1, 8]: 1180 ng/mL | half-life [1, 8]: 61.8 min | Tmax ([1]; both sexes, Sprague Dawley, rat, in vivo, po, 40 mg/kg, rat plasma, Posiphen PO 40 mg/kg, n = 6): < 1 h | AUC(0-t) ([1]; both sexes, Sprague Dawley, rat, in vivo, po, 40 mg/kg, read-out: AUC (0–8 h)): 1140 ng·h/mL | Primary compound in plasma ([1]; rat plasma): primary compound | Primary compound in plasma ([2]; human plasma): primary compound | Tmax ([2]; human plasma): 1.45 h | Cmax ([2]; human, in vivo, po): 117 ng/mL | Cmax ([2]; human, in vivo, po, 1.1 mg/kg): 120 ng/mL | Tmax ([2]; human, in vivo, po, 1.1 mg/kg, human plasma, read-out: Tmax): 1 to 2 h | AUC(0-t) ([2]; human, in vivo, po, 1.1 mg/kg, read-out: AUC (0–8 h)): 310 ng·h/mL | AUC(0-t) ([2]; human, in vivo, po, read-out: AUC (0-t)): 565 ng·h/mL | Kp [3]: 5.04 | Kp ([3]; in vivo): 0.17 | T1/2 ([3]; in vivo): 30 min | Tmax ([3]; in vivo): 2.32 h | Tmax (time of Cmax) ([3]; in vivo): 30 min | Cmax ([3]; in vivo, Cmax): 163 ng/mL | T1/2 [3]: 30 min | Tmax [3]: 0.74 h | Tmax (time of Cmax) [3]: 30 min | Cmax [3]: 4740 ng/mL | Kp [4]: 0.02 | half-life [4]: > 720 min | AUC(0-t) ([4]; po): 20.7 ng·h/mL | Cmax ([4]; po): 2.23 ng/mL | T1/2 ([4]; po): 3 h | Tmax ([4]; po): 17.26 h | Tmax (time of Cmax) ([4]; po): 3 h | logD [5]: 2.2 | Maximum tolerated dose [6]: 160 mg
